Measurements from US10844077B2, “Thiazolyl-containing compounds for treating proliferative diseases” (Dana-Farber Cancer Institute, Inc., priority 2014, dated 2020).
Read-outs that look alike come from different tables or passages of the source.

Columns and labels:
Type in all cases: binding
broad panel of kinases [1] = target: broad panel of kinases (Homo sapiens, UniProt Q14004); settings: CDC2L5; 1 μM
broad panel of kinases [2] = target: broad panel of kinases (Homo sapiens, UniProt Q32MK0); settings: MLCK; 1 μM
broad panel of kinases [3] = target: broad panel of kinases (Homo sapiens, UniProt P30291); settings: WEE1; 1 μM
broad panel of kinases [4] = target: broad panel of kinases (Homo sapiens, UniProt P06213); settings: INSR; 1 μM
broad panel of kinases [5] = target: broad panel of kinases (Homo sapiens, UniProt Q15139); settings: PRKD1; 1 μM
broad panel of kinases [6] = target: broad panel of kinases (Homo sapiens, UniProt Q9UF33); settings: EPHA6; 1 μM
broad panel of kinases [7] = target: broad panel of kinases (Homo sapiens, UniProt Q15759); settings: p38-beta; 1 μM
broad panel of kinases [8] = target: broad panel of kinases (Homo sapiens, UniProt O75460); settings: ERN1; 1 μM
broad panel of kinases [9] = target: broad panel of kinases (Homo sapiens, UniProt P54764); settings: EPHA4; 1 μM
broad panel of kinases [10] = target: broad panel of kinases (Homo sapiens, UniProt Q9P1W9); settings: PIM2; 1 μM
broad panel of kinases [11] = target: broad panel of kinases (Homo sapiens, UniProt P00533, G719S); settings: EGFR(G719S); 1 μM
broad panel of kinases [12] = target: broad panel of kinases (Homo sapiens, UniProt O60285); settings: ARK5; 1 μM
broad panel of kinases [13] = target: broad panel of kinases (Homo sapiens, UniProt P10721, V559D); settings: KIT(V559D); 1 μM
broad panel of kinases [14] = target: broad panel of kinases (Homo sapiens, UniProt P42336, I800L); settings: PIK3CA(I800L); 1 μM
broad panel of kinases [15] = target: broad panel of kinases (Homo sapiens, UniProt Q9UPE1); settings: SRPK3; 1 μM
broad panel of kinases [16] = target: broad panel of kinases (Homo sapiens, UniProt Q2M2I8); settings: AAK1; 1 μM
broad panel of kinases [17] = target: broad panel of kinases (Homo sapiens, UniProt Q86YV6); settings: MYLK4; 1 μM
broad panel of kinases [18] = target: broad panel of kinases (Homo sapiens, UniProt Q13163); settings: MEK5; 1 μM
broad panel of kinases [19] = target: broad panel of kinases (Homo sapiens, UniProt P00519, M351T); settings: ABL1(M351T)-phosphorylated; 1 μM
broad panel of kinases [20] = target: broad panel of kinases (Homo sapiens, UniProt Q16513); settings: PKN2; 1 μM
broad panel of kinases [21] = target: broad panel of kinases (Homo sapiens, UniProt P52333); settings: JAK3(JH1domain-catalytic); 1 μM
broad panel of kinases [22] = target: broad panel of kinases (Homo sapiens, UniProt Q13557); settings: CAMK2D; 1 μM
broad panel of kinases [23] = target: broad panel of kinases (Homo sapiens, UniProt P42336, H1047L); settings: PIK3CA(H1047L); 1 μM
broad panel of kinases [24] = target: broad panel of kinases (Homo sapiens, UniProt P36507); settings: MEK2; 1 μM
broad panel of kinases [25] = target: broad panel of kinases (Homo sapiens, UniProt P42679); settings: CTK; 1 μM
broad panel of kinases [26] = target: broad panel of kinases (Homo sapiens, UniProt O43353); settings: RIPK2; 1 μM
broad panel of kinases [27] = target: broad panel of kinases (Homo sapiens, UniProt Q9UBE8); settings: NLK; 1 μM
broad panel of kinases [28] = target: broad panel of kinases (Homo sapiens, UniProt P07949); settings: RET; 1 μM
broad panel of kinases [29] = target: broad panel of kinases (Homo sapiens, UniProt P36888, D835H); settings: FLT3(D835H); 1 μM
broad panel of kinases [30] = target: broad panel of kinases (Homo sapiens, UniProt P49760); settings: CLK2; 1 μM
broad panel of kinases [31] = target: broad panel of kinases (Homo sapiens, UniProt Q9UQM7); settings: CAMK2A; 1 μM
broad panel of kinases [32] = target: broad panel of kinases (Homo sapiens, UniProt P07949, V804M); settings: RET(V804M); 1 μM
broad panel of kinases [33] = target: broad panel of kinases (Homo sapiens, UniProt P23458); settings: 1 μM
broad panel of kinases [34] = target: broad panel of kinases (Homo sapiens, UniProt Q9HC98); settings: NEK6; 1 μM
broad panel of kinases [35] = target: broad panel of kinases (Homo sapiens, UniProt P42680); settings: TEC; 1 μM
broad panel of kinases [36] = target: broad panel of kinases (Homo sapiens, UniProt Q9UM73, C1156Y); settings: ALK(C1156Y); 1 μM
broad panel of kinases (Homo sapiens, UniProt Q9UM73, C1156Y), sequence (Q9UM73 19-1620 C1156Y limits assumed): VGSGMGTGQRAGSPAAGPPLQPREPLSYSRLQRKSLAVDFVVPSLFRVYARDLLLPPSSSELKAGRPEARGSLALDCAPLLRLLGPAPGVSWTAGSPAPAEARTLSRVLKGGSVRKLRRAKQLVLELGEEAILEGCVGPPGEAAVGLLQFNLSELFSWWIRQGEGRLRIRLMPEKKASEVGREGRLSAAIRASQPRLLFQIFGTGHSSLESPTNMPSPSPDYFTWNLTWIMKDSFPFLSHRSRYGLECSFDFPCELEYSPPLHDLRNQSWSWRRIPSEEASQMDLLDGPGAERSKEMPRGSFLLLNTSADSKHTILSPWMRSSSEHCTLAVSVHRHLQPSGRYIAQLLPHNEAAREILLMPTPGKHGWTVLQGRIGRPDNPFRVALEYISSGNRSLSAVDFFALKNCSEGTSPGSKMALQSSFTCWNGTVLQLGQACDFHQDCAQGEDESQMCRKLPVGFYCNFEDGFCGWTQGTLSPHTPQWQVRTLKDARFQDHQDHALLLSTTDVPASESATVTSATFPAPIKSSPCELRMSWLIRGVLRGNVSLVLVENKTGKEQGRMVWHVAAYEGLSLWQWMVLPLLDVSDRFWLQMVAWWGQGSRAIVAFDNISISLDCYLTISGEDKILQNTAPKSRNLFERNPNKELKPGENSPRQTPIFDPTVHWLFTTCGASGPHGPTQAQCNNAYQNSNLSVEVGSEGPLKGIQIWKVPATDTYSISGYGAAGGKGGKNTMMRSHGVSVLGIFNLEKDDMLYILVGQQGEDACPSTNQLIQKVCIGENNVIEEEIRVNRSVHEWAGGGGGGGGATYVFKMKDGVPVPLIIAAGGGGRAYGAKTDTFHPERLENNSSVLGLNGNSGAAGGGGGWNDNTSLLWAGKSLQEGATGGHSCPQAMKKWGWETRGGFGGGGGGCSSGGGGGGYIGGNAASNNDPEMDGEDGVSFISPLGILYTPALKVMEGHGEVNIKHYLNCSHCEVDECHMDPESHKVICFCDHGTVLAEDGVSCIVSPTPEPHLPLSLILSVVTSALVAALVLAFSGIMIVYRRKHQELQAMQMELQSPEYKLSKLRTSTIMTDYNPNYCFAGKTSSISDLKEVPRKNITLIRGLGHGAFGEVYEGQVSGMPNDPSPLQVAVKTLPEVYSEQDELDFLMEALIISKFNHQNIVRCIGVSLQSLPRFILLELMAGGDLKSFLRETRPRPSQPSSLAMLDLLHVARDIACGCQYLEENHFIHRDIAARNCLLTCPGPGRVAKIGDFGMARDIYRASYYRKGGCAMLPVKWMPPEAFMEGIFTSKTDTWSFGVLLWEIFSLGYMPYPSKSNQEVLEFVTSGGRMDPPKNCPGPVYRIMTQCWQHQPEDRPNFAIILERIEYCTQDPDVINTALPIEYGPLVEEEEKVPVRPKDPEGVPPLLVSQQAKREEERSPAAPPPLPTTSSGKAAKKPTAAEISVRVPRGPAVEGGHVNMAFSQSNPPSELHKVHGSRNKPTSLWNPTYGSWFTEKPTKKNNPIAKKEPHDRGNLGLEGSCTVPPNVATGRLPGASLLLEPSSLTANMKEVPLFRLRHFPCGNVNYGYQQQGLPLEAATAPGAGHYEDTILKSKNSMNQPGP

broad panel of kinases (Homo sapiens, UniProt P10721, V559D), sequence (P10721 26-976 V559D limits assumed): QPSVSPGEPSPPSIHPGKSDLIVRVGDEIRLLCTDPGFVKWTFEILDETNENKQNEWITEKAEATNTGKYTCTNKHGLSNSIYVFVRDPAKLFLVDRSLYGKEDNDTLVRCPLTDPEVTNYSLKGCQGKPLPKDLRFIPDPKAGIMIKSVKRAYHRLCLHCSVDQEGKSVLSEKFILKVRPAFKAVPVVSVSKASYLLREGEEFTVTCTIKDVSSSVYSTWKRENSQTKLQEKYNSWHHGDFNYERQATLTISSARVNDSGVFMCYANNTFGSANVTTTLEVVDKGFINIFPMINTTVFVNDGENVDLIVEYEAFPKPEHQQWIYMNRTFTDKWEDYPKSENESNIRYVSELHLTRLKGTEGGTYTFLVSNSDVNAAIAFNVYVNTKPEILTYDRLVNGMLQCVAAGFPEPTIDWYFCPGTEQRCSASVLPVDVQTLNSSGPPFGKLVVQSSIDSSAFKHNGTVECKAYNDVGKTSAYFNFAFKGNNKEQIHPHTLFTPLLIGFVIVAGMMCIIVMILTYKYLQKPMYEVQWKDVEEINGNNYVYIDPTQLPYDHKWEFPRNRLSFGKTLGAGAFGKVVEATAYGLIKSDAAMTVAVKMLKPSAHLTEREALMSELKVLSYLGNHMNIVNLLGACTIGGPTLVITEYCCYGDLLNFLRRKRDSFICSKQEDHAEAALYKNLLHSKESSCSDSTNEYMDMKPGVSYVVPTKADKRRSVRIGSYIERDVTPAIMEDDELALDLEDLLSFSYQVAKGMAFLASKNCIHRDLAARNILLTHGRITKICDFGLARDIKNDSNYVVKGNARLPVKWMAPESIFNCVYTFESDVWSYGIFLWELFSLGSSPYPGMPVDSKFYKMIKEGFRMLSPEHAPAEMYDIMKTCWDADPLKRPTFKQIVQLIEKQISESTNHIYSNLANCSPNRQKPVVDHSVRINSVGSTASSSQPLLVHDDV
broad panel of kinases (Homo sapiens, UniProt P07949, V804M), sequence (P07949 29-1114 V804M limits assumed): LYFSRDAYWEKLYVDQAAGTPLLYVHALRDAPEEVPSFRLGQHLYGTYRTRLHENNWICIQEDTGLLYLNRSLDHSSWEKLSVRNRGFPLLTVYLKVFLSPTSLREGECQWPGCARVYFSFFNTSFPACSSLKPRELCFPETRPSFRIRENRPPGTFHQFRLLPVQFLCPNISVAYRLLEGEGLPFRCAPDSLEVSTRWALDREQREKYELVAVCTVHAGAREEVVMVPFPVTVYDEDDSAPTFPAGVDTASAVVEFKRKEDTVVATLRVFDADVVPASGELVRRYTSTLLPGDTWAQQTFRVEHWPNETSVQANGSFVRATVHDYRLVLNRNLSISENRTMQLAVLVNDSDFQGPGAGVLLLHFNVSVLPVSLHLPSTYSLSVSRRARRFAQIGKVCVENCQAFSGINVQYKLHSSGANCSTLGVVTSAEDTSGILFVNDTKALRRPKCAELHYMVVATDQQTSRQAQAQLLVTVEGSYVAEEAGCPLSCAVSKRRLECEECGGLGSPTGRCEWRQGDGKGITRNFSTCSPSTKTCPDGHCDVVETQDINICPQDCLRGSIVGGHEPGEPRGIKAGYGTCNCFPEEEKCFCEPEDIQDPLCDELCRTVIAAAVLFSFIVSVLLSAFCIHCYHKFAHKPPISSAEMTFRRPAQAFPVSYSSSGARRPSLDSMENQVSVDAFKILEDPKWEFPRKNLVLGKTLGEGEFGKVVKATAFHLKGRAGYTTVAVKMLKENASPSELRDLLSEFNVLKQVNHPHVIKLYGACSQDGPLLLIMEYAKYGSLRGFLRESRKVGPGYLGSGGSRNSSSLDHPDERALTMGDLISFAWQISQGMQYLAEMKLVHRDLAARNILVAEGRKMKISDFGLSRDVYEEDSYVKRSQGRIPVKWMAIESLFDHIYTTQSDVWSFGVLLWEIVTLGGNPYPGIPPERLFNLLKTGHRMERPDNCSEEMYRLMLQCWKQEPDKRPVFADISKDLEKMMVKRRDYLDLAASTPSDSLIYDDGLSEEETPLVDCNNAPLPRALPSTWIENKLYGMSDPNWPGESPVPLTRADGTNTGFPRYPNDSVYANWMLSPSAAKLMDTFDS
broad panel of kinases (Homo sapiens, UniProt P07949), sequence (P07949 29-1114 limits assumed): as the sequence (P07949 29-1114 V804M limits assumed) above, with M776V counted along it
broad panel of kinases (Homo sapiens, UniProt P06213), sequence (P06213 28-758 limits assumed): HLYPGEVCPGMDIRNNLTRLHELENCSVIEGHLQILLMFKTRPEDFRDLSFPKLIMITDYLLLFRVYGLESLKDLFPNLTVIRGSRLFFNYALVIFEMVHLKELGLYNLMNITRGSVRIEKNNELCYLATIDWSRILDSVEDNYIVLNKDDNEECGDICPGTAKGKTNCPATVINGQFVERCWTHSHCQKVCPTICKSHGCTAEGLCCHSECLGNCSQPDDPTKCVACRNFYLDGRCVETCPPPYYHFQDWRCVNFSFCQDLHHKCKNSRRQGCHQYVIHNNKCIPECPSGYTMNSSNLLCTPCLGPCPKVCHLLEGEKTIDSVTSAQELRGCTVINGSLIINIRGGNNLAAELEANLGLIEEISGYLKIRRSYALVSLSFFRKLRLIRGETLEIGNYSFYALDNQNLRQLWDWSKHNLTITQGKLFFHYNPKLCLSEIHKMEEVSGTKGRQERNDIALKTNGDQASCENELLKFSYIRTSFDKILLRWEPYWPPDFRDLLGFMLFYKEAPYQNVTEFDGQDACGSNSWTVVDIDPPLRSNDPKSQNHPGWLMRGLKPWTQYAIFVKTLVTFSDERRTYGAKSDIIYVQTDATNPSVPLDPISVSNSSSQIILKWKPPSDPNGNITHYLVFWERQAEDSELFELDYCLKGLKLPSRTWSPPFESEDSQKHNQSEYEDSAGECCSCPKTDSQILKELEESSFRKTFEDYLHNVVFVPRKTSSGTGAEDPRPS
broad panel of kinases (Homo sapiens, UniProt P06213), sequence (P06213 763-1382 limits assumed): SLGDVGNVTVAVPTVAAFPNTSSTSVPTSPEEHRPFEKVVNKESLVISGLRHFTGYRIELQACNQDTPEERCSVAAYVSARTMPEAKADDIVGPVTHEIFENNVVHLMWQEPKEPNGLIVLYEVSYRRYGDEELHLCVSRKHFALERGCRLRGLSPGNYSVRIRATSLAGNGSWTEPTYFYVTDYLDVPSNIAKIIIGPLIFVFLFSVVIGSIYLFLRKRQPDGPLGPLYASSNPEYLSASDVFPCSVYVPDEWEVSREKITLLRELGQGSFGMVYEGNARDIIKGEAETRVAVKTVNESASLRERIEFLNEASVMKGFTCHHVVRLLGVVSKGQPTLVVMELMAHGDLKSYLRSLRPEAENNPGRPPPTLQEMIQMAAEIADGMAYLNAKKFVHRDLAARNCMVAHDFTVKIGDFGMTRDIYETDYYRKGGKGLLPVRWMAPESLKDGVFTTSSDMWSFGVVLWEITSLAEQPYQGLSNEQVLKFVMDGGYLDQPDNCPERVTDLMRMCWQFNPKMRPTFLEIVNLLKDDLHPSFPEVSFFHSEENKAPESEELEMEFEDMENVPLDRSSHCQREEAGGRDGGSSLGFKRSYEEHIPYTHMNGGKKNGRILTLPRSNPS

Row | SMILES | percent of control binding remaining (lower = stronger binding) (broad panel of kinases [1]) [%] | percent of control binding remaining (lower = stronger binding) (broad panel of kinases [2]) [%] | percent of control binding remaining (lower = stronger binding) (broad panel of kinases [3]) [%] | percent of control binding remaining (lower = stronger binding) (broad panel of kinases [4]) [%] | percent of control binding remaining (lower = stronger binding) (broad panel of kinases [5]) [%] | percent of control binding remaining (lower = stronger binding) (broad panel of kinases [6]) [%] | percent of control binding remaining (lower = stronger binding) (broad panel of kinases [7]) [%] | percent of control binding remaining (lower = stronger binding) (broad panel of kinases [8]) [%] | percent of control binding remaining (lower = stronger binding) (broad panel of kinases [9]) [%] | percent of control binding remaining (lower = stronger binding) (broad panel of kinases [10]) [%] | percent of control binding remaining (lower = stronger binding) (broad panel of kinases [11]) [%] | percent of control binding remaining (lower = stronger binding) (broad panel of kinases [12]) [%] | percent of control binding remaining (lower = stronger binding) (broad panel of kinases [13]) [%] | percent of control binding remaining (lower = stronger binding) (broad panel of kinases [14]) [%] | percent of control binding remaining (lower = stronger binding) (broad panel of kinases [15]) [%] | percent of control binding remaining (lower = stronger binding) (broad panel of kinases [16]) [%] | percent of control binding remaining (lower = stronger binding) (broad panel of kinases [17]) [%] | percent of control binding remaining (lower = stronger binding) (broad panel of kinases [18]) [%] | percent of control binding remaining (lower = stronger binding) (broad panel of kinases [20]) [%] | percent of control binding remaining (lower = stronger binding) (broad panel of kinases [21]) [%] | other results
1 | C=CC(=O)N1CC[C@H](Nc2nccc(Nc3ncc(C(=O)Nc4c(C)cccc4C)s3)n2)C1 [Example I-3] | 100 | 100 | 100 | 93 | 94 | 100 | 63 | 76 | 0 | 72 | 7.6 | 100 | 0 | 89 | 97 | 100 | 100 | 0.45 | 100 | 0 | % change compared to control (broad panel of kinases [19]): 0.7%; percent of control binding remaining (lower = stronger binding) (broad panel of kinases [22]): 92%; percent of control binding remaining (lower = stronger binding) (broad panel of kinases [23]): 100%; percent of control binding remaining (lower = stronger binding) (broad panel of kinases [24]): 100%; percent of control binding remaining (lower = stronger binding) (broad panel of kinases [25]): 81%; percent of control binding remaining (lower = stronger binding) (broad panel of kinases [26]): 31%; percent of control binding remaining (lower = stronger binding) (broad panel of kinases [27]): 9.4%; percent of control binding remaining (lower = stronger binding) (broad panel of kinases [28]): 86%; percent of control binding remaining (lower = stronger binding) (broad panel of kinases [29]): 100%; percent of control binding remaining (lower = stronger binding) (broad panel of kinases [30]): 96%; percent of control binding remaining (lower = stronger binding) (broad panel of kinases [31]): 83%; percent of control binding remaining (lower = stronger binding) (broad panel of kinases [32]): 100%; percent of control binding remaining (lower = stronger binding) (broad panel of kinases [33]; JAK1(JH1domain-catalytic)): 100%; percent of control binding remaining (lower = stronger binding) (broad panel of kinases [33]; JAK1(JH2domain-pseudokinase)): 100%; percent of control binding remaining (lower = stronger binding) (broad panel of kinases [34]): 64%; percent of control binding remaining (lower = stronger binding) (broad panel of kinases [35]): 3.3%; percent of control binding remaining (lower = stronger binding) (broad panel of kinases [36]): 84%
2 | C=CC(=O)N1CC[C@H](Nc2nc(CN3CCOCC3)cc(Nc3ncc(C(=O)Nc4c(C)cccc4C)s3)n2)C1 [Example I-2] | 100 | 100 | 93 | 67 | 93 | 100 | 62 | 83 | 0 | 84 | 17 | 99 | 0 | 76 | 100 | 97 | 98 | 0.25 | 84 | 0 | percent of control binding remaining (lower = stronger binding) (broad panel of kinases [19]): 0.6%; percent of control binding remaining (lower = stronger binding) (broad panel of kinases [22]): 91%; percent of control binding remaining (lower = stronger binding) (broad panel of kinases [23]): 84%; percent of control binding remaining (lower = stronger binding) (broad panel of kinases [24]): 78%; percent of control binding remaining (lower = stronger binding) (broad panel of kinases [25]): 67%; percent of control binding remaining (lower = stronger binding) (broad panel of kinases [26]): 14%; percent of control binding remaining (lower = stronger binding) (broad panel of kinases [27]): 11%; percent of control binding remaining (lower = stronger binding) (broad panel of kinases [28]): 100%; percent of control binding remaining (lower = stronger binding) (broad panel of kinases [29]): 100%; percent of control binding remaining (lower = stronger binding) (broad panel of kinases [30]): 100%; percent of control binding remaining (lower = stronger binding) (broad panel of kinases [31]): 86%; percent of control binding remaining (lower = stronger binding) (broad panel of kinases [32]): 100%; percent of control binding remaining (lower = stronger binding) (broad panel of kinases [33]; JAK1(JH1domain-catalytic)): 100%; percent of control binding remaining (lower = stronger binding) (broad panel of kinases [33]; JAK1(JH2domain-pseudokinase)): 100%; percent of control binding remaining (lower = stronger binding) (broad panel of kinases [34]): 100%; percent of control binding remaining (lower = stronger binding) (broad panel of kinases [35]): 3.6%; percent of control binding remaining (lower = stronger binding) (broad panel of kinases [36]): 94%
